{"source": "patent US20100285476A1", "about": "“METHODS OF IDENTIFYING HISTONE DEACETYLASE INHIBITORS USEFUL FOR NEUROLOGICAL DISORDERS” (priority 2007, published 2010)", "key": {"[1]": {"target": "HDAC1 (Homo sapiens, UniProt Q13547)", "sequence (Q13547 whole entry)": "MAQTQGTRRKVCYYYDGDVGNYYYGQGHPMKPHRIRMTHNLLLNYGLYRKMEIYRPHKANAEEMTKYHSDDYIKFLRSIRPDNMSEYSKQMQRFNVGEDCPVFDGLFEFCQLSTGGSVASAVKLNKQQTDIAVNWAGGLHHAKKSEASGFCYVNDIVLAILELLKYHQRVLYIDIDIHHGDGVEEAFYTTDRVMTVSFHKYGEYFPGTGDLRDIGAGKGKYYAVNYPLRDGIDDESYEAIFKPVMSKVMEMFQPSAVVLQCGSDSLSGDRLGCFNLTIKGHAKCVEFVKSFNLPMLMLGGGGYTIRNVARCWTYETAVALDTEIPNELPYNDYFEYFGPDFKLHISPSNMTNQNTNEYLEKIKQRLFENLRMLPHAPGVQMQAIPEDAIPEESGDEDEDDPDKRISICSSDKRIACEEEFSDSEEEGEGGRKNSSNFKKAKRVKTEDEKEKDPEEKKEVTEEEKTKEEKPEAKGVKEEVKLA", "assay": "HDAC enzyme inhibition assay, purified HDAC1", "assay_type": "biochemical"}, "[2]": {"target": "HDAC2 (Homo sapiens, UniProt Q92769)", "sequence (Q92769 whole entry)": "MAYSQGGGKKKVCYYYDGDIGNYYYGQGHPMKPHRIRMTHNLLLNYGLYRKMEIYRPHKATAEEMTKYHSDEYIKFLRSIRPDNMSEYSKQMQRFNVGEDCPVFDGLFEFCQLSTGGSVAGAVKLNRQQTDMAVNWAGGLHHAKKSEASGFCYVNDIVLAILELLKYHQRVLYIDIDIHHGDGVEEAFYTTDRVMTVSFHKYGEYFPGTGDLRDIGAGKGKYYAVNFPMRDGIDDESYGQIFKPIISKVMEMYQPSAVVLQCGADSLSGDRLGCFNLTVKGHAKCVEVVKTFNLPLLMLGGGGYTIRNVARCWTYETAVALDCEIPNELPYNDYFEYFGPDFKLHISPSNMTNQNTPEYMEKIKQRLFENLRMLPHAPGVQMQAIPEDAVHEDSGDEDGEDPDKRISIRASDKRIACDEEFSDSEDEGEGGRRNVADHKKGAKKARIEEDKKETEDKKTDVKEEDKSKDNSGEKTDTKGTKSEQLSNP", "assay": "HDAC enzyme inhibition assay, purified HDAC2", "assay_type": "biochemical"}, "[3]": {"target": "HDAC3 (Homo sapiens, UniProt O15379)", "sequence (O15379 whole entry)": "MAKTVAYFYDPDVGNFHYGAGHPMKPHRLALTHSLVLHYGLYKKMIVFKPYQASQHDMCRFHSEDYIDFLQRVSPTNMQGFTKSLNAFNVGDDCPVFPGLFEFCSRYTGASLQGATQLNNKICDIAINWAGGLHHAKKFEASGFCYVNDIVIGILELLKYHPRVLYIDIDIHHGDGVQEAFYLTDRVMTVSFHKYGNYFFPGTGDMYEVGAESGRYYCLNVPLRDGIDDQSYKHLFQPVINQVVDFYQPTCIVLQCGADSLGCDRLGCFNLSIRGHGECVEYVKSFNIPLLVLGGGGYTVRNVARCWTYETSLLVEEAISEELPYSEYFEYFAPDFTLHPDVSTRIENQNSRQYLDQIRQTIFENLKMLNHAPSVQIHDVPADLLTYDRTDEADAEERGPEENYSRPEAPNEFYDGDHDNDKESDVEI", "sequence (Q9Y618 395-489 partner limits assumed)": "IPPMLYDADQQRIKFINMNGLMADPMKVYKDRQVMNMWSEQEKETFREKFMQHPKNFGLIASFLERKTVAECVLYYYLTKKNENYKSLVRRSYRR", "assay": "HDAC enzyme inhibition assay, purified HDAC3", "assay_type": "biochemical", "details": "for Relative Inhibitory Activity HDAC 1/3: IC50 for HDAC1 divided by IC50 for HDAC3; for Relative Inhibitory Activity HDAC 2/3: IC50 for HDAC2 divided by IC50 for HDAC3; for Relative Inhibitory Activity HDAC 5/3: IC50 for HDAC5 divided by IC50 for HDAC3; for IC50: purified HDAC3"}, "[4]": {"target": "HDAC5 (Homo sapiens, UniProt Q9UQL6)", "sequence (Q9UQL6 whole entry)": "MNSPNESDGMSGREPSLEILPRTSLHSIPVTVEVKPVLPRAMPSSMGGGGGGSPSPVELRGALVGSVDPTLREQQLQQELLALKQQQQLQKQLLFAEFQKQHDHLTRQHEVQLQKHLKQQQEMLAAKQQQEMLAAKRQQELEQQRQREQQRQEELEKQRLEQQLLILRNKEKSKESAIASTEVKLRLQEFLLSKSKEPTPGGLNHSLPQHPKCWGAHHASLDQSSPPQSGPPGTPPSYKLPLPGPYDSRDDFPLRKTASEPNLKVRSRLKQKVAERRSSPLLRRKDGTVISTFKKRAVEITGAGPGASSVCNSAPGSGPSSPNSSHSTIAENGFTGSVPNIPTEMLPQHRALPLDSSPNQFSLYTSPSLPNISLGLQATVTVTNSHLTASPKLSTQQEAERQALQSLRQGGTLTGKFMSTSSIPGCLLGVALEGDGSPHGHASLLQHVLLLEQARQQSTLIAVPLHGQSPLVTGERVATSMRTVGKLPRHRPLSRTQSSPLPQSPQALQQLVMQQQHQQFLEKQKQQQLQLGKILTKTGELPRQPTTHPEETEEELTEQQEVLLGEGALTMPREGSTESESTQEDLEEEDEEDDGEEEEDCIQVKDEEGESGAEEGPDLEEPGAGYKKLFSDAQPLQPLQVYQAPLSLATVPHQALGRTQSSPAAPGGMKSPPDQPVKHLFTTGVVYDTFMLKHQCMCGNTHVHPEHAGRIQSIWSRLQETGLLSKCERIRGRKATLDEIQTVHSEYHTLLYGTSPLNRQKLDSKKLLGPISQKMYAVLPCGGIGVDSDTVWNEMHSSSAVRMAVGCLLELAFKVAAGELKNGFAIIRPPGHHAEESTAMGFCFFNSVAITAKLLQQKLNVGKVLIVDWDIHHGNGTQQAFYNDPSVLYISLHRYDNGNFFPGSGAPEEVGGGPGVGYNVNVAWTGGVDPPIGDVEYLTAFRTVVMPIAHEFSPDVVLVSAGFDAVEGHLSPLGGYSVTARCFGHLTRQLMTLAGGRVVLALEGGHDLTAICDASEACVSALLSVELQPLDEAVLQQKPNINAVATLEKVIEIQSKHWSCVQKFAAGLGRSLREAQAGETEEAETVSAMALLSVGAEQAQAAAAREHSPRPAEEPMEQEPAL", "assay": "HDAC enzyme inhibition assay, purified HDAC5", "assay_type": "biochemical"}, "[5]": {"tested_on": "HepG2 cells", "assay": "Growth inhibition of HepG2 cells (CellTiter 96 AQueous One Solution)", "assay_type": "cell-based, human", "details": "for HepG2/HDAC3 (estimated therapeutic index): HepG2 growth IC50 divided by IC50 for HDAC3; for IC50: Homo sapiens, 72 hours; for IC50 / cytotoxicity, result in words: HepG2 cells"}, "[6]": {"tested_on": "frataxin (FXN1) mRNA", "assay": "Frataxin mRNA expression in lymphocytes by quantitative RT-PCR", "details": "for frataxin mRNA expression, result in words / Fold Increase FXN1 Expr. (10 μM): 10 μM; for frataxin mRNA expression, result in words: human lymphocytes; for Fold Increase FXN1 Expr. (10 μM): human lymphocytes of normal donors, vs vehicle control"}, "[7]": {"tested_on": "HDACs 1-10", "assay": "Panel of individual purified HDAC enzymes (HDACs 1-10)", "assay_type": "biochemical, human"}}, "data": [{"smiles": "Cc1ccc(NC(=O)CCCCCC(=O)N2CCN(c3ccccc3)CC2)cc1", "note": "[Compound 6]", "values": [{"measurement": "IC50", "setting": "[1]", "result": 4.2, "unit": "µM"}, {"measurement": "IC50", "setting": "[2]", "result": 5.9, "unit": "µM"}, {"measurement": "HDAC3 inhibition, result in words", "setting": "[3]", "result": "did not show strong inhibition of HDAC3"}, {"measurement": "Relative Inhibitory Activity HDAC 1/3", "setting": "[3]", "result": 0.45}, {"measurement": "Relative Inhibitory Activity HDAC 2/3", "setting": "[3]", "result": 0.65}, {"measurement": "Relative Inhibitory Activity HDAC 5/3", "setting": "[3]", "result": 2.0}, {"measurement": "IC50", "setting": "[3]", "result": 9.1, "unit": "µM"}, {"measurement": "IC50", "setting": "[4]", "result": 18.2, "unit": "µM"}, {"measurement": "HepG2/HDAC3 (estimated therapeutic index)", "setting": "[5]", "result": 12.3}, {"measurement": "IC50", "setting": "[5]", "result": 112, "unit": "µM"}, {"measurement": "frataxin mRNA expression, result in words", "setting": "[6]", "result": "not active to increase frataxin expression"}, {"measurement": "Fold Increase FXN1 Expr. (10 μM)", "setting": "[6]", "result": "none"}]}, {"smiles": "Cc1ccc(NC(=O)CCCCCC(=O)NO)cc1", "note": "[Compound 21]", "values": [{"measurement": "IC50", "setting": "[1]", "result": 1.19, "unit": "µM"}, {"measurement": "IC50", "setting": "[2]", "result": 2.92, "unit": "µM"}, {"measurement": "HDAC3 inhibition, result in words", "setting": "[3]", "result": "strong HDAC3 inhibitory activity"}, {"measurement": "Relative Inhibitory Activity HDAC 1/3", "setting": "[3]", "result": 3.7}, {"measurement": "Relative Inhibitory Activity HDAC 2/3", "setting": "[3]", "result": 9.1}, {"measurement": "Relative Inhibitory Activity HDAC 5/3", "setting": "[3]", "result": 5.1}, {"measurement": "IC50", "setting": "[3]", "result": 0.32, "unit": "µM"}, {"measurement": "IC50", "setting": "[4]", "result": 1.63, "unit": "µM"}, {"measurement": "cytotoxicity, result in words", "setting": "[5]", "result": "relatively low cytotoxicity"}, {"measurement": "HepG2/HDAC3 (estimated therapeutic index)", "setting": "[5]", "result": 31}, {"measurement": "IC50", "setting": "[5]", "result": 10, "unit": "µM"}, {"measurement": "frataxin mRNA expression, result in words", "setting": "[6]", "result": "effective to increase frataxin expression"}, {"measurement": "Fold Increase FXN1 Expr. (10 μM)", "setting": "[6]", "result": 2.0, "unit": "Fold"}]}, {"smiles": "Nc1ccccc1NC(=O)c1ccc(CNC(=O)OCc2cccnc2)cc1", "note": "[MS-275, reference compound]", "values": [{"measurement": "cytotoxicity, result in words", "setting": "[5]", "result": "may be too cytotoxic for long-term use"}, {"measurement": "frataxin mRNA expression, result in words", "setting": "[6]", "result": "did appreciably increase frataxin mRNA expression"}]}, {"smiles": "Cc1ccc(NC(=O)CCCCCC(=O)Nc2ccccc2N)cc1", "note": "[RGFA8, N^1-(2-aminophenyl)-N^7-p-tolylheptanediamide]", "values": [{"measurement": "maximum observed increase of frataxin expression", "setting": "[6]; 1-30 μM, normal lymphocytes, compared to vehicle control (FIG. 1)", "result": "about 16 fold"}, {"measurement": "frataxin expression, result in words", "setting": "[6]; normal lymphocytes or patient lymphocytes, all concentrations tested (1-30 μM)", "result": "increased expression of frataxin"}]}, {"smiles": "CC(/C=C/C(=O)NO)=C\\[C@@H](C)C(=O)c1ccc(N(C)C)cc1", "note": "[TSA, trichostatin A]", "values": [{"measurement": "inhibition of all HDACs tested, result in words", "setting": "[7]", "result": "Sub-micromolar inhibition"}]}]}
